Consider 10 molecules from paper PMC9196953 (Drug development research, 1999).

Like-named read-outs stand apart in the source and are kept apart here.

Assay [1] concerns the target T1, human A2B receptors (Homo sapiens, UniProt P29275).
T1 construct: expressed in transfected cells; host or cells: HEK-293
T1 sequence (P29275 1-332): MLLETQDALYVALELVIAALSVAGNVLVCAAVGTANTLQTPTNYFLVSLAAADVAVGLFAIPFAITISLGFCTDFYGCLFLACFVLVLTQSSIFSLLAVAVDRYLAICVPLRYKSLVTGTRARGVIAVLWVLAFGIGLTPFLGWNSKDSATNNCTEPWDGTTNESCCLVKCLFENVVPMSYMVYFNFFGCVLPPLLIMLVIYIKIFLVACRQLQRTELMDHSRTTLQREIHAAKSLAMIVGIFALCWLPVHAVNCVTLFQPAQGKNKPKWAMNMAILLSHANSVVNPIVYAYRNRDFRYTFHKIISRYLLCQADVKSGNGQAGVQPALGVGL
The note with it: ref Jacobson et al., 1999, cited from earlier work.

In assay [2] the target is T2, rat A1 receptors (Rattus norvegicus, UniProt P25099).
T2 construct: to A1 receptors from rat cerebral cortical membranes; from tissue; host or cells: rat cerebral cortical membranes
T2 sequence (P25099 1-326): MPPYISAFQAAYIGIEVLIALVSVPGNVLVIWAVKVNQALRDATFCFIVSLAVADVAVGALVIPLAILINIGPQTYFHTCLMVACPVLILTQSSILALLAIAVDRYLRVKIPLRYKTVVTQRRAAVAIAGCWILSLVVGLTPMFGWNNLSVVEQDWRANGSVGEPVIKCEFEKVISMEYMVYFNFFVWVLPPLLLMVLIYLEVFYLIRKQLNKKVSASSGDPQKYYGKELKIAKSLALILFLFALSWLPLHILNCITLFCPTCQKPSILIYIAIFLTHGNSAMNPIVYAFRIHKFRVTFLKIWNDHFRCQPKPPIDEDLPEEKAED
Nature of the assay: Displacement of [3H]R-PIA binding to A1 receptors in rat brain membranes. The note with it: read-out: Ki rA1. The method, then:
(§1) All nonradioactive compounds were initially dissolved in DMSO and diluted with buffer to the final concentration, where the amount of DMSO never exceeded 2%. Incubations were terminated by rapid filtration over Whatman GF/B filters using a Brandell cell harvester. The tubes were rinsed three times with 3 mL buffer each.
(§2) At least six different concentrations of competitor, spanning 3 orders of magnitude adjusted appropriately for the IC50 value of each compound, were used. IC50 values, calculated with the nonlinear regression method implemented in Graph-Pad Prism (San Diego, CA) were converted to apparent Ki values as described by [Linden [1982]]. Hill coefficients of the tested compounds were in the range of 0.8–1.1.
(§3) At A2B receptors, two radioligand binding assays (Table 1) were used. Ki values of xanthine derivatives were determined in displacement of binding of the non-selective radioligands […], 8 (4-(2-[7-amino-2-{furyl}{1,2,4}triazolo{2,3-a}{1,3,5}tr nzyl)-8-phenyloxyacetate-1-propyl-xanthine), at human A2B receptors expressed in HEK-293 cell membranes [[Linden and Jacobson, 1998]]. In order to evaluate selectivity, selected derivatives were subjected to standard binding assays at A1, A2A, and A3 receptors. The initial screening utilized rat brain A1/A2A receptors (with radioligands [^3H]R-PIA and [^3H]CGS-21680), and selected compounds were examined at the recombinant human subtypes (Table 1), using [^3H]CPX ([^3H]8-cyclopentyl-1,3-dipropylxanthine) and ^125I-ZM 241385, ^125I-4-(2-[7-amino-2-[2-furyl][1,2,4]triazolo[2,3-a][1,3,5]triazin-5-yl-amino]ethyl)phenol) [[Palmer et al., 1996]].
For orientation: Displacement assays read how much labelled ligand stays bound in the presence of the test substance.

Assay [3] has as its target T1, human A2B receptors. Nature of the assay: Binding at human A2B receptors expressed in HEK-293 cells vs [3H]ZM241385. The note with it: for rA1/hA2B: ratio of Ki rat A1 to Ki human A2B. The method, then:
The plasmid was amplified in competent JM109 cells and plasmid DNA isolated using Wizard Megaprep columns (Promega Corp., Madison, WI).
Colonies were selected by growth of cells in 0.6 mg/mL G418. Transfected cells were maintained in DMEM supplemented with Hams F12 nutrient mixture (1/1), 10% newborn calf serum, 2 mM glutamine, and containing 50 IU/mL penicillin, 50 μg/mL streptomycin, and 0.2 mg/mL Geneticin (G418, Boehringer Mannheim, Indianapolis, IN).
Confluent monolayers of HEK-A2B cells were washed with PBS followed by ice-cold Buffer A (10 mM HEPES, 10 mM EDTA, pH 7.4) with protease inhibitors ([…] benzamidine, […], and […] of each aprotinin, pepstatin, and leupeptin). The cells were homogenized in a Polytron (Brinkmann) for 20 sec, centrifuged at 30,000g, and the pellets washed twice with buffer HE (10 mM HEPES, 1 mM EDTA, pH 7.4 with protease inhibitors). The final pellet was resuspended in buffer HE, supplemented with 10% sucrose and frozen in aliquots at −80°C. For binding assays, membranes were thawed and diluted 5–10-fold with HE to a final protein concentration of approximately 1 mg/mL. […] After incubating for 20 min at room temperature, 50 mL of 10 mg/mL Na-metabisulfite in water was added the quench the reaction. The reaction products were applied to a C18 HPLC column using 4 mM phosphate, pH 6.0/methanol. […] The incubation time was 3 h at 21°C. […] Membranes were filtered on Whatman GF/C filters using a Brandell cell harvester (Gaithersburg, MD) and washed three times over 15–20 sec with ice-cold buffer (10 mM Tris, 1 mM MgCl2, pH 7.4). […] Data from replicate experiments are tabulated as means ± SEM.
At A2B receptors, two radioligand binding assays (Table 1) were used. […] In order to evaluate selectivity, selected derivatives were subjected to standard binding assays at A1, A2A, and A3 receptors.

The target in assay [4] is T3, rat A2A receptors (Rattus norvegicus, UniProt P30543).
T3 construct: to A2A receptors from rat striatal membranes; from tissue; host or cells: rat striatal membranes
T3 sequence (P30543 whole entry): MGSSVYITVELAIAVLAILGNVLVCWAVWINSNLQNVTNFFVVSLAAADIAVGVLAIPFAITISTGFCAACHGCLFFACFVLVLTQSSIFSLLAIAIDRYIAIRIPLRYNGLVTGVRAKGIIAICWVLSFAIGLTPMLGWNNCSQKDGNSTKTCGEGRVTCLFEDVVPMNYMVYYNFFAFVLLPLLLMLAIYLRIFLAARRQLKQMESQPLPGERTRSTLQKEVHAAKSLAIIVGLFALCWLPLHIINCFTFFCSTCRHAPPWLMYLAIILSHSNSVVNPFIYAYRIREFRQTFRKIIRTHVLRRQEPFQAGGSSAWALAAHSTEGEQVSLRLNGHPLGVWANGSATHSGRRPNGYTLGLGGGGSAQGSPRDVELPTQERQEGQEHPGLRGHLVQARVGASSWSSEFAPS
Nature of the assay: Displacement of [3H]CGS 21680 binding to A2A receptors in rat striatal membranes. The conditions noted are these: read-out: Ki rA2A. The procedure:
as §1, §2, §3

The target in assay [5] is T4, human A2A receptors (Homo sapiens, UniProt P29274).
T4 construct: expressed in transfected cells; host or cells: HEK-293
T4 sequence (P29274 whole entry): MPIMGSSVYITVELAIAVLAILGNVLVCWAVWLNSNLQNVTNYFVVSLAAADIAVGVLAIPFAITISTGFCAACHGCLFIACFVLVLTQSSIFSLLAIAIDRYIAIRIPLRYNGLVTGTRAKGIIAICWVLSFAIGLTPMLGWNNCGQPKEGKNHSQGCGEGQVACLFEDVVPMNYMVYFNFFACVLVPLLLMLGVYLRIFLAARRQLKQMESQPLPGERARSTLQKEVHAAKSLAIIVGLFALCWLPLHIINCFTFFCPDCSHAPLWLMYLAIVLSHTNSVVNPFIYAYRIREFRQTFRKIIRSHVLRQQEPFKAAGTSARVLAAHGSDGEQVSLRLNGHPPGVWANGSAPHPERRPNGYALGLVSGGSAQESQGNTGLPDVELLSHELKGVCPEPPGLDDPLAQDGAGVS
Nature of the assay: Binding at recombinant human A2A receptors expressed in HEK-293 cells vs [125I]ZM241385. The note with it: recombinant human A2A in HEK-293 cells, read-out: Ki A2A (h) (converted). The method, then:
as §1, §2, §3

The target in assay [6] is T5, human A3 receptors (Homo sapiens, UniProt P0DMS8).
T5 construct: expressed in transfected cells; host or cells: HEK-293
T5 sequence (P0DMS8 1-318): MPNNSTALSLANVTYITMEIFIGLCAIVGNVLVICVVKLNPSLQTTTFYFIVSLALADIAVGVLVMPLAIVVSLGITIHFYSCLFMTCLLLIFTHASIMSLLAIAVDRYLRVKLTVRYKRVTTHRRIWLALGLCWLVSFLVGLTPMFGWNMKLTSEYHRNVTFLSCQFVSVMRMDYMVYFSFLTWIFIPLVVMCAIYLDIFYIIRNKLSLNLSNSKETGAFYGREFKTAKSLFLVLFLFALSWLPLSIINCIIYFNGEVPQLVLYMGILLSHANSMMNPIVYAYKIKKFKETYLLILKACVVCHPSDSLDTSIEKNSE
Description: Displacement of [125I]AB-MECA binding at human A3 receptors expressed in HEK cells. The note with it: read-out: Ki hA3. The method, then:
as §3

For assay [7], the target named is T6, human A1 receptors (Homo sapiens, UniProt P30542).
T6 construct: expressed in transfected cells; host or cells: HEK-293
T6 sequence (P30542 1-326): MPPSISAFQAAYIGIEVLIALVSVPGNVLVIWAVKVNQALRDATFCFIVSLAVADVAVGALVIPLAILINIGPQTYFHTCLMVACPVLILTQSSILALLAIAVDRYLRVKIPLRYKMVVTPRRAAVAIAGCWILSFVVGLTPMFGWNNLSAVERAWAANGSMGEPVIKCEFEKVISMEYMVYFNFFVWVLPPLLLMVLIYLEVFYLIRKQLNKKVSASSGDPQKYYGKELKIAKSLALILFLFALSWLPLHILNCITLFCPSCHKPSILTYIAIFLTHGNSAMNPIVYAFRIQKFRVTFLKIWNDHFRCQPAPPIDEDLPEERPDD
Nature of the assay: Binding at recombinant human A1 receptors expressed in HEK-293 cells vs [3H]CPX. The note with it: recombinant human A1 in HEK-293 cells. The procedure:
as §1, §2, §3

Assay [8] has as its system A2B receptor. Further details: method as in Brackett and Daly, 1994. The note with it: ref Brackett and Daly, 1994; cited from earlier work.
Where [9] appears, read: HEK-293 cells, vs [3H]ZM241385, read-out: Ki hA2B.
[10] abbreviates: rounded values given in text, read-out: Ki at human A2B receptors.

In the case of `Cn1c(=O)c2[nH]c(-c3ccccc3)nc2n(C)c1=O` [Compound 3], in assay [1] (relative to theophylline, 2), the “enhancement of affinity at A2B receptors” value is listed as 22 fold.
As to `CCCn1c(=O)c2[nH]c(-c3ccc(OCC(=O)NN4C(=O)CC[C@H](NC(=O)C(F)(F)F)C4=O)cc3)nc2n(CCC)c1=O` [Compound 24b], the Ki (as a rule, a measure of affinity in units of concentration, obtained from inhibition or displacement) in assay [2] was 0.0535 ± 0.0065 µM; in assay [3] (setting [9]), 0.013 ± 0.0035 µM; in assay [4] it was 0.44 ± 0.106 µM; in assay [5], 0.178 µM; in assay [6] it was 0.726 ± 0.245 µM; in assay [7], 0.149 µM. The rA1/hA2B in assay [3] stood at 4.1.
Consider `CCCn1c(=O)c2[nH]c(-c3ccc(OCC(=O)NN4C(=O)CCC4=O)cc3)nc2n(CCC)c1=O` [Compound 10, 8-[4-[(Carboxymethyl)oxy]phenyl]-1,3-di-(n-propyl)xanthine N,N-Succinylhydrazide], for which the Ki in assay [2] was 0.0559 ± 0.0251 µM; in assay [3] (setting [9]), 0.0186 ± 0.0061 µM; in assay [4], 0.805 ± 0.044 µM; in assay [5], 0.0272 µM; in assay [6], 0.766 ± 0.176 µM; in assay [7], 0.0752 µM. In addition, in assay [3], the rA1/hA2B is listed as 3.0.
With `O=c1nc2[nH]c3ccccc3nc-2c(=O)[nH]1` [Alloxazine], the “selectivity as antagonist at the A2B receptor vs. other subtypes” value in assay [8] was “approximately one order of magnitude”.
Consider `CCCn1c(=O)c2[nH]c(-c3ccc(OCC(=O)NN4C(=O)C5CC=CCC5C4=O)cc3)nc2n(CCC)c1=O` (stereo not drawn) [Compound 18b, 8-[4-[(Carboxymethyl)oxy]phenyl]-1,3-di-(n-propyl)xanthine N,N-(cis-1,2,3,6-Tetrahydrophthaloyl)-hydrazide], for which the Ki in assay [2] was 0.0364 ± 0.0062 µM; in assay [3] (setting [9]), 0.01 ± 0.003 µM; in assay [4], 0.689 ± 0.477 µM; in assay [5], 0.301 µM; in assay [6], 0.37 ± 0.19 µM; in assay [7], 0.129 µM. Moreover, the rA1/hA2B in assay [3] turned out to be 3.6.
Consider `CCCn1c(=O)c2[nH]c(-c3ccc(OCC(=O)NN4C(=O)C5=C(CCC5)C4=O)cc3)nc2n(CCC)c1=O` [Compound 19b, 8-[4-[(Carboxymethyl)oxy]phenyl]-1,3-di-(n-propyl)xanthine N,N-(1-Cyclopentene-1,2-dicarbonyl)-hydrazide], for which the Ki in assay [2] came to 0.0413 ± 0.0064 µM; in assay [3] (setting [9]), 0.0215 ± 0.0015 µM; in assay [4], 1.16 µM; in assay [6], 0.308 ± 0.088 µM. The rA1/hA2B in assay [3] came to 1.9.
Consider `CCCn1c(=O)c2[nH]c(-c3ccc(OCC(=O)NNC(=O)C4=C(C(=O)O)CCC4)cc3)nc2n(CCC)c1=O` [Compound 19a, 8-[4-[(Carboxymethyl)oxy]phenyl]-1,3-di-(n-propyl)xanthine N-[2-((1-Carboxy)-1-cyclopentene)-carbonyl]hydrazide], for which the Ki in assay [2] was found to be 0.0817 ± 0.0312 µM; in assay [3] (setting [9]) it was 0.0785 ± 0.0205 µM; in assay [4] it was 0.708 ± 0.169 µM; in assay [6], 1.18 µM. In addition, in assay [3], the rA1/hA2B stood at 1.0.
Take `CCCn1c(=O)c2[nH]c(-c3ccc(OCC(=O)ON4C(=O)CCC4=O)cc3)nc2n(CCC)c1=O` [Compound 4d]: the “selectivity for human A2B receptors vs. A1, A2A, and A3 adenosine receptors” value in assay [1] is on record as “approximately 20 fold”.
With `CCCn1c(=O)c2[nH]c(-c3ccc(OCC(=O)NNC(=O)CNC(=O)CNC(=O)OCc4ccccc4)cc3)nc2n(CCC)c1=O` [Compound 27, 8-[4-[(Carboxymethyl)oxy]phenyl]-1,3-di-(n-propyl)xanthine N-(N-Benzyloxycarbonyl-glycylglycinyl)hydrazide], the Ki in assay [2] was 0.036 ± 0.0066 µM; in assay [3] (setting [9]) it was 0.0108 ± 0.005 µM; in assay [3] (setting [10]) it was 0.011 µM; in assay [4], 0.609 ± 0.095 µM; in assay [5], 0.83 µM; in assay [6] it was 0.323 ± 0.047 µM. In assay [7], the Ki was 0.2 µM. Besides, the rA1/hA2B in assay [3] turned out to be 3.3.
As for `CCCn1c(=O)c2[nH]c(-c3ccc(OCC(=O)NNC(=O)[C@H](CCSC)NC(=O)OC(C)(C)C)cc3)nc2n(CCC)c1=O` [Compound 26, 8-[4-[(Carboxymethyl)oxy]phenyl]-1,3-di-(n-propyl)xanthine N-(N-tert-Butoxycarbonyl-L-methionyl)-hydrazide], the Ki was 0.113 ± 0.027 µM in assay [2]; 0.0397 ± 0.0136 µM in assay [3] (setting [9]); 0.04 µM in assay [3] (setting [10]); 0.524 ± 0.285 µM in assay [4]; 0.69 ± 0.57 µM in assay [6]. Moreover, the rA1/hA2B in assay [3] is reported as 2.8.
